Test results reported in patent publication US12344610B2, “APOL1 inhibitors and methods of use” (Maze Therapeutics, Inc., priority 2022, dated 2025).

System: Trypanosoma brucei Lister 427 VSG221 with APOL1 G1 recombinant protein
Assay: APOL1 G1 trypanosome cell rescue assay (Example B5)
Type: cell-based
Conditions: Trypanosoma brucei, 20 h, read-out: APOL1 G1 Trypanosome Rescue EC50, Trypanosoma brucei Lister 427 VSG221 with APOL1 G1 recombinant protein, 20 hours, CellTiter-Glo; geometric mean of at least 2 assay runs; † = single assay run
How it was run: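 Viability read by CellTiter-Glo luminescence after 20 h co-incubation (37° C, 5% CO2) of 250 trypanosomes/well in modified HMI-9 with test compound (duplicate 11-point, 2-fold dilutions, 0.4% DMSO) and APOL1 protein, […]. Protein: mature residues 28-398, E. coli inclusion-body refolded, tag cleaved, in DDM.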

Q: How did the EC50 turn out when `CN=S(C)(=O)c1ccc(OCCN2CCC3(CC2)C(=O)Nc2ccc(Cl)cc23)cc1` (stereo not shown) [Compound 147, 5-chloro-1′-(2-{4-[methyl(methylimino)oxo-λ^6-sulfanyl]phenoxy}ethyl)-1,2-dihydrospiro[indole-3,4′-piperidin]-2-one] was run?
A: 231 nM

Q: How did the EC50 turn out when `CN=S(C)(=O)c1ccc(OCCN2CCC3(CC2)C(=O)Nc2ccc(C#N)cc23)cc1` (stereo not shown) [Compound 150, 1′-(2-{4-[methyl(methylimino)oxo-λ^6-sulfanyl]phenoxy}ethyl)-2-oxo-1,2-dihydrospiro[indole-3,4′-piperidine]-5-carbonitrile] was run?
A: 2290 nM

Q: `CN1CCc2cc(OCCN3CCC4(CC3)C(=O)Nc3ccc(Cl)cc34)ccc2S1(=O)=O` [Compound 153, 6-(2-{5-chloro-2-oxo-1,2-dihydrospiro[indole-3,4′-piperidin]-1′-yl}ethoxy)-2-methyl-3,4-dihydro-2H-1λ^6,2-benzothiazine-1,1-dione] was tested. Which EC50 did it give?
A: 66.7 nM

Q: With `CN1CCc2cc(OCCN3CCC4(CC3)C(=O)Nc3ccc(C#N)cc34)ccc2S1(=O)=O` [Compound 154, 1′-{2-[(2-methyl-1,1-dioxo-3,4-dihydro-2H-1λ^6,2-benzothiazin-6-yl)oxy]ethyl}-2-oxo-1,2-dihydrospiro[indole-3,4′-piperidine]-5-carbonitrile] as the compound, how does the EC50 read?
A: 569 nM

Q: With `CS(=O)(=O)c1ccc(OCCN2CCC3(CC2)C(=O)Nc2ccc(Cl)cc23)cc1Cl` [Compound 155, 5-chloro-1′-[2-(3-chloro-4-methanesulfonylphenoxy)ethyl]-1,2-dihydrospiro[indole-3,4′-piperidin]-2-one] as the compound, how does the EC50 read?
A: 36.1 nM

Q: For `CS(=O)(=O)c1ccc(OCCN2CCC3(CC2)C(=O)Nc2ccc(C#N)cc23)cc1Cl` [Compound 156, 1′-[2-(3-chloro-4-methanesulfonylphenoxy)ethyl]-2-oxo-1,2-dihydrospiro[indole-3,4′-piperidine]-5-carbonitrile], which EC50 is on record?
A: 154 nM

Q: For `CC(C)(C#N)c1ccc(OCCN2CCC3(CC2)C(=O)Nc2ccc(C#N)cc23)cc1` [Compound 157, 1′-{2-[4-(1-cyano-1-methylethyl)phenoxy]ethyl}-2-oxo-1,2-dihydrospiro[indole-3,4′-piperidine]-5-carbonitrile], which EC50 is on record?
A: 142 nM

Q: Which EC50 does the source give for `CC1(S(=O)(=O)c2ccc(OCCN3CCC4(CC3)C(=O)Nc3ccc(Cl)cc34)cn2)COC1` [Compound 158, 5-chloro-1′-[2-({6-[(3-methyloxetan-3-yl)sulfonyl]pyridin-3-yl}oxy)ethyl]-1,2-dihydrospiro[indole-3,4′-piperidin]-2-one] here?
A: 142 nM

Q: Which EC50 does the source give for `CS(=O)(=O)C1(c2ccc(OCCN3CCC4(CC3)C(=O)N(CCO)c3ccc(Cl)cc34)cc2)COC1` [Compound 160, 5-chloro-1-(2-hydroxyethyl)-1′-{2-[4-(3-methanesulfonyloxetan-3-yl)phenoxy]ethyl}-1,2-dihydrospiro[indole-3,4′-piperidin]-2-one] here?
A: 156 nM

Q: `Cc1cc(OCCN2CCC3(CC2)C(=O)Nc2ccc(Cl)cc23)cnc1S(C)(=O)=O` [Compound 161, 5-chloro-1′-{2-[(6-methanesulfonyl-5-methylpyridin-3-yl)oxy]ethyl}-1,2-dihydrospiro[indole-3,4′-piperidin]-2-one] was tested. Which EC50 did it give?
A: 107 nM

Q: For `O=C1CCc2cc(OCCN3CCC4(CC3)C(=O)Nc3ccc(Cl)cc34)ccc2N1CCO` [Compound 162, 5-chloro-1′-(2-{[1-(2-hydroxyethyl)-2-oxo-1,2,3,4-tetrahydroquinolin-6-yl]oxy}ethyl)-1,2-dihydrospiro[indole-3,4′-piperidin]-2-one], which EC50 is on record?
A: 142 nM

Q: With `CS(=O)(=O)c1ccc(OCCN2CCC3(CC2)C(=O)Nc2ccc(Cl)cc23)cc1OC(F)F` [Compound 163, 5-chloro-1′-{2-[3-(difluoromethoxy)-4-methanesulfonylphenoxy]ethyl}-1,2-dihydrospiro[indole-3,4′-piperidin]-2-one] as the compound, how does the EC50 read?
A: 90 nM

Q: For `CS(=O)(=O)c1ccc(OCCN2CCC3(CC2)C(=O)Nc2ccc(C#N)cc23)cc1OC(F)F` [Compound 164, 1′-{2-[3-(difluoromethoxy)-4-methanesulfonylphenoxy]ethyl}-2-oxo-1,2-dihydrospiro[indole-3,4′-piperidine]-5-carbonitrile], which EC50 is on record?
A: 349 nM

Q: For `CS(=O)(=O)C1(c2ccc(OCCN3CCC4(CC3)C(=O)Nc3ccc(Cl)cc34)cc2C(F)(F)F)COC1` [Compound 165, 5-chloro-1′-{2-[4-(3-methanesulfonyloxetan-3-yl)-3-(trifluoromethyl)phenoxy]ethyl}-1,2-dihydrospiro[indole-3,4′-piperidin]-2-one], which EC50 is on record?
A: 33.8 nM

Q: Which EC50 does the source give for `CS(=O)(=O)C1(c2ccc(OCCN3CCC4(CC3)C(=O)Nc3ccc(C#N)cc34)cc2C(F)(F)F)COC1` [Compound 166, 1′-{2-[4-(3-methanesulfonyloxetan-3-yl)-3-(trifluoromethyl)phenoxy]ethyl}-2-oxo-1,2-dihydrospiro[indole-3,4′-piperidine]-5-carbonitrile] here?
A: 112 nM

Q: Which EC50 does the source give for `O=C1Nc2ccc(Cl)cc2C12CCN(CCOc1ccc3c(c1)CCNS3(=O)=O)CC2` [Compound 167, 6-(2-{5-chloro-2-oxo-1,2-dihydrospiro[indole-3,4′-piperidin]-1′-yl}ethoxy)-3,4-dihydro-2H-1λ^6,2-benzothiazine-1,1-dione] here?
A: 148 nM

Q: Which EC50 does the source give for `N#Cc1ccc2c(c1)C1(CCN(CCOc3ccc4c(c3)CCNS4(=O)=O)CC1)C(=O)N2` [Compound 168, 1′-{2-[(1,1-dioxo-3,4-dihydro-2H-1λ^6,2-benzothiazin-6-yl)oxy]ethyl}-2-oxo-1,2-dihydrospiro[indole-3,4′-piperidine]-5-carbonitrile] here?
A: 638 nM

Q: Which EC50 does the source give for `CN1C(=O)Cc2cc(OCCN3CCC4(CC3)C(=O)Nc3ccc(C#N)cc34)cc(F)c21` [Compound 169, 1′-{2-[(7-fluoro-1-methyl-2-oxo-2,3-dihydro-1H-indol-5-yl)oxy]ethyl}-2-oxo-1,2-dihydrospiro[indole-3,4′-piperidine]-5-carbonitrile] here?
A: 918 nM

Q: With `CC1(Oc2ncc(OCCN3CCC4(CC3)C(=O)Nc3ccc(Cl)cc34)cn2)COC1` [Compound 172, 5-chloro-1′-[2-({2-[(3-methyloxetan-3-yl)oxy]pyrimidin-5-yl}oxy)ethyl]-1,2-dihydrospiro[indole-3,4′-piperidin]-2-one] as the compound, how does the EC50 read?
A: 353 nM

Q: Which EC50 does the source give for `CCS(=O)(=O)C1(c2ccc(OCCN3CCC4(CC3)C(=O)Nc3ccc(C#N)cc34)cc2)COC1` [Compound 174, 1′-(2-{4-[3-(ethanesulfonyl)oxetan-3-yl]phenoxy}ethyl)-2-oxo-1,2-dihydrospiro[indole-3,4′-piperidine]-5-carbonitrile] here?
A: 481 nM

Q: How did the EC50 turn out when `CS(=O)(=O)C1(c2ccc(OCCN3CCC4(CC3)C(=O)Nc3ccc(Cl)cc34)cc2)CCC1` [Compound 180, 5-chloro-1′-{2-[4-(1-methanesulfonylcyclobutyl)phenoxy]ethyl}-1,2-dihydrospiro[indole-3,4′-piperidin]-2-one] was run?
A: 47.7 nM

Q: How did the EC50 turn out when `CS(=O)(=O)C1(c2ccc(OCCN3CCC4(CC3)C(=O)Nc3ccc(C#N)cc34)cc2)CCC1` [Compound 181, 1′-{2-[4-(1-methanesulfonylcyclobutyl)phenoxy]ethyl}-2-oxo-1,2-dihydrospiro[indole-3,4′-piperidine]-5-carbonitrile] was run?
A: 232 nM

Q: `CS(=O)(=O)C1(c2ccc(OCCN3CCC4(CC3)C(=O)Nc3ccc(Cl)cc34)cc2)CC2(COC2)C1` [Compound 182, 5-chloro-1′-[2-(4-{6-methanesulfonyl-2-oxaspiro[3.3]heptan-6-yl}phenoxy)ethyl]-1,2-dihydrospiro[indole-3,4′-piperidin]-2-one] was tested. Which EC50 did it give?
A: 481 nM

Q: How did the EC50 turn out when `CS(=O)(=O)C1(c2ccc(OCCN3CCC4(CC3)C(=O)N(CC(F)(F)F)c3ccc(C#N)cc34)cc2)COC1` [Compound 184, 1′-{2-[4-(3-methanesulfonyloxetan-3-yl)phenoxy]ethyl}-2-oxo-1-(2,2,2-trifluoroethyl)-1,2-dihydrospiro[indole-3,4′-piperidine]-5-carbonitrile] was run?
A: 2080 nM

Q: `CS(=O)(=O)C1(c2ccc(OCCN3CCC4(CC3)C(=O)N(CC(F)(F)F)c3ccc(Cl)cc34)cc2)COC1` [Compound 185, 5-chloro-1′-{2-[4-(3-methanesulfonyloxetan-3-yl)phenoxy]ethyl}-1-(2,2,2-trifluoroethyl)-1,2-dihydrospiro[indole-3,4′-piperidin]-2-one] was tested. Which EC50 did it give?
A: 479 nM

Q: With `CS(=O)(=O)C1(c2ccc(OCCN3CCC4(CC3)C(=O)Nc3ccc(Cl)cc34)cc2)CCOCC1` [Compound 188, 5-chloro-1′-{2-[4-(4-methanesulfonyloxan-4-yl)phenoxy]ethyl}-1,2-dihydrospiro[indole-3,4′-piperidin]-2-one] as the compound, how does the EC50 read?
A: 96.5 nM

Q: With `CN1C(=O)C2(CCN(CCOc3cc(F)c(C4(S(C)(=O)=O)COC4)c(F)c3)CC2)c2cc(C#N)ccc21` [Compound 189, 1′-{2-[3,5-difluoro-4-(3-methanesulfonyloxetan-3-yl)phenoxy]ethyl}-1-methyl-2-oxo-1,2-dihydrospiro[indole-3,4′-piperidine]-5-carbonitrile] as the compound, how does the EC50 read?
A: 246 nM

Q: How did the EC50 turn out when `CC(C)(c1ccc(OCCN2CCC3(CC2)C(=O)Nc2ccc(C#N)cc23)cn1)S(C)(=O)=O` [Compound 191, 1′-(2-{[6-(2-methanesulfonylpropan-2-yl)pyridin-3-yl]oxy}ethyl)-2-oxo-1,2-dihydrospiro[indole-3,4′-piperidine]-5-carbonitrile] was run?
A: 304 nM
